{"source": "paper PMC5501099", "about": "(Malaria Journal, 2017)", "key": {"[1]": {"assay": "Population pharmacokinetic model of ivermectin in healthy Thai volunteers", "format": "in vivo, human", "conditions": "single oral 200 µg/kg", "method": "The first-order conditional estimation method with interaction was used throughout model development. Model diagnostics and automation were performed using Xpose version 4.0 [25], Pirana and Pearl-speaks-NONMEM (PsN; version 3.6.0). The objective function value (OFV; calculated by NONMEM as proportional to −2 × loglikelihood of data) was used to discriminate between hierarchical models. A difference between two models (ΔOFV) of >3.84 and >10.83 were considered statistically significant at a P value of <0.05 and <0.001, respectively. Models were assessed using standard goodness-of-fit and simulation-based diagnostics (i.e. numerical and visual predictive checks using 2000 simulations). The robustness of the final model was evaluated by bootstrapping (n = 1000).\nDifferent disposition models (one-, two- and three-compartment models) and absorption models (first-order and transit models) were evaluated to describe the pharmacokinetic structural model of ivermectin. Pharmacokinetic parameters were assumed to be log-normally distributed and inter-individual variability was implemented as exponential functions. […] The influence of other individual covariates including gender, age, haemoglobin, haematocrit, total bilirubin, direct bilirubin, alkaline phosphatase, aspartate aminotransferase, and alanine aminotransferase, serum creatinine, blood urea nitrogen, and albumin level were investigated using a stepwise covariate approach (P value <0.05 and <0.001 for forward and backward addition and deletion, respectively).\nThere were no observations reported to be below the lower limit of quantification. […] A flexible transit absorption model (n = 2) improved the model fit substantially compared to the first-order absorption (∆OFV = −378). […] Implementing body weight as a covariate in the model also allowed for translation and interpretation to other study populations."}, "[2]": {"tested_on": "Anopheles sawadwongporni", "assay": "Ivermectin lethal concentration / survivorship, membrane blood feeding", "format": "in vivo", "conditions": "An. sawadwongporni", "method": "Powdered formulation of ivermectin compound was obtained from Sigma-Aldrich (St. Louis, USA). […] Control blood meals consisted of previously frozen DMSO diluted in PBS to match the ratio of DMSO and PBS fed to mosquitoes in the ivermectin-containing blood meals.\nAfter blood feeding via a membrane feeder, unfed mosquitoes were removed and discarded. Blood-fed mosquitoes were held in 3.5-l plastic containers with access to 10% sucrose and kept in an incubator at 25 ± 1 °C and 70 ± 10% relative humidity, on a 12 h light:12 h dark photoperiod. Mosquito survivorship was monitored for 7 days, every 24 h dead mosquitoes were removed and recorded, and on day 7 all remaining mosquitoes were frozen and counted as alive.\n(§1) A non-linear mixed effects model with probit analysis was used to calculate LC50, LC25 and LC5 values with Statistical Analysis Software (SAS Institute Inc, Cary, NC, USA) as described previously. Hazard ratios for mosquito mortality at day 7 post blood meal were calculated using Poisson regression analysis with STATA version 12.1 (StataCorp LLC, College Station, TX, USA). Oocyst and sporozoite prevalence (i.e. proportion of infected mosquitoes) was compared by Fishers Exact test. Oocyst intensity (i.e. number of oocysts per infected mosquito) was compared by the Mann–Whitney U test. To determine if P. vivax infection altered mosquito survivorship post-ivermectin ingestion survival data were analysed by the Mantel–Cox method. The Fishers Exact, Mann–Whitney U, and survival analysis data were analysed with Prism 7 (GraphPad Software Inc, San Diego, CA, USA)."}, "[3]": {"tested_on": "Plasmodium vivax", "assay": "Effect of ivermectin on Plasmodium vivax sporogony in Anopheles minimus", "format": "in vivo", "conditions": "An. minimus", "method": "Mosquitoes reared in Bangkok were transported to a field laboratory at the Mae Sot Malaria Medical Clinic in Mae Sot, Tak Province. Plasmodium vivax-infected blood was collected from malaria-infected patients reporting to malaria clinics operated by the Thailand Ministry of Public Health in Tak Province (protocol WRAIR#1949A). Patient plasma was removed and replaced by centrifuging blood samples at 3000 rpm for 5 min, plasma removed and blood washed with RPMI twice, and malaria-naïve AB+ serum was added at a 50:50 ratio [30]. One millilitre of blood was fed to each group of 100 mosquitoes in 0.5-l cardboard containers and unfed mosquitoes were removed. Mosquitoes were maintained on 10% sucrose ad libitum at the Mae Sot field insectary (25 ± 1 °C and 70 ± 10% relative humidity, light 12 h:12 h dark photoperiod). Once infected with P. vivax, blood-fed mosquitoes were securely transported back to Bangkok and maintained in a separate insectary (25 ± 1 °C and 70 ± 10% relative humidity, light 12 h:12 h dark photoperiod).\nUnfed mosquitoes were removed from the feeding containers after each blood meal. Mosquitoes from the DPI 0 and DPI −3 feeding schedules were dissected 7 days post parasite ingestion to enumerate oocysts. Midguts were dissected with minuten pins into saline on a microscope slide and stained with 0.4% mercurochrome and viewed at 40× magnification with a compound microscope to determine oocyst prevalence and intensity. Approximately 25 mosquitoes were dissected from each control and treatment group at each dissection time point. Dissectors were blinded to treatment groups. Due to lack of initial mosquito blood feeding and mosquitoes lost to experimental mortality and oocyst dissections at day 7 post parasite feeding, not enough mosquitoes remained at day 14 post parasite feeding to determine sporozoite prevalence for the DPI −3 and 0 experiments. Mosquitoes from the DPI 6 and 9 experiments were dissected 14 days post parasite ingestion to determine sporozoite prevalence. […]\nas §1, with “Oocyst and sporozoite prevalence (i.e. proportion of infected mosquitoes) was compared by Fishers Exact test. Oocyst intensity (i.e. number of oocysts per infected mosquito) was compared by the Mann–Whitney U test.” left out"}, "[4]": {"tested_on": "An. gambiae", "design": "method as in PMID 20540931", "conditions": "cited from earlier work"}, "[5]": {"design": "method as in earlier work", "conditions": "humans, n = 4; cited from earlier work"}, "[6]": {"conditions": "single dose of 800 µg/kg, literature parameters of American healthy volunteers; cited from earlier work"}, "[7]": {"conditions": "23 healthy Thai volunteers, plasma data of trial [24]"}, "[8]": {"conditions": "post hoc estimate, median (interquartile range)"}}, "data": [{"substance": "ivermectin", "values": [{"measurement": "MTT mean transit absorption time, population estimate (%RSE)", "setting": "[1]; [7]", "value": "0.496 (17.1) h"}, {"measurement": "ka absorption rate constant, population estimate (%RSE)", "setting": "[1]; [7]", "value": "0.317 (3.97) h^−1"}, {"measurement": "IIV of CL/F (%RSE)", "setting": "[1]; healthy Thai volunteers", "value": "23.1 (25.2) %CV"}, {"measurement": "IIV of F relative bioavailability (%RSE)", "setting": "[1]; healthy Thai volunteers", "value": "10.7 (42.9) %CV"}, {"measurement": "IIV of MTT (%RSE)", "setting": "[1]; healthy Thai volunteers", "value": "56.1 (36.2) %CV"}, {"measurement": "IIV of VP/F (%RSE)", "setting": "[1]; healthy Thai volunteers", "value": "22.8 (36.0) %CV"}, {"measurement": "CL/F apparent oral elimination clearance, population estimate (%RSE)", "setting": "[1]; healthy Thai volunteers, allometric scaling centred on 55 kg", "value": "9.02 (5.49) l/h"}, {"measurement": "Q/F apparent inter-compartmental clearance, population estimate (%RSE)", "setting": "[1]; healthy Thai volunteers, centred on 55 kg", "value": "16.2 (5.34) l/h"}, {"measurement": "AUC0–168", "setting": "[1]; [8]", "value": "1331 (919–1406) ng × h/ml"}, {"measurement": "Cmax", "setting": "[1]; [8]", "value": "45.7 (40.3–46.9) ng/ml"}, {"measurement": "Terminal half-life", "setting": "[1]; [8]", "value": "25.0 (23.7–29.5) h"}, {"measurement": "Tmax", "setting": "[1]; [8]", "value": "4.76 (4.67–5.04) h"}, {"measurement": "LC5", "setting": "[2]; 7 days post blood meal", "value": 16.1, "unit": "ng/mL"}, {"measurement": "LC25", "setting": "[2]; 7 days post blood meal", "value": 0.0218, "unit": "µg/mL"}, {"measurement": "LC50", "setting": "[2]; 7 days post blood meal", "value": 0.0269, "unit": "µg/mL"}, {"measurement": "IRR (Incidence Rate Ratio of mortality at day 7, treatment group divided by control group)", "setting": "[2]; ivermectin imbibed 4 ng/ml", "value": 0.3}, {"measurement": "IRR (Incidence Rate Ratio of mortality at day 7, treatment group divided by control group)", "setting": "[2]; ivermectin imbibed 5 ng/ml", "value": 1.3}, {"measurement": "IRR (Incidence Rate Ratio of mortality at day 7, treatment group divided by control group)", "setting": "[2]; ivermectin imbibed 6 ng/ml", "value": 0.3}, {"measurement": "IRR (Incidence Rate Ratio of mortality at day 7, treatment group divided by control group)", "setting": "[2]; ivermectin imbibed 8 ng/ml", "value": 0.6}, {"measurement": "IRR (Incidence Rate Ratio of mortality at day 7, treatment group divided by control group)", "setting": "[2]; ivermectin imbibed 10 ng/ml", "value": 1.1}, {"measurement": "IRR (Incidence Rate Ratio of mortality at day 7, treatment group divided by control group)", "setting": "[2]; ivermectin imbibed 12 ng/ml", "value": 0.9}, {"measurement": "IRR (Incidence Rate Ratio of mortality at day 7, treatment group divided by control group)", "setting": "[2]; ivermectin imbibed 15 ng/ml", "value": 2.1}, {"measurement": "IRR (Incidence Rate Ratio of mortality at day 7, treatment group divided by control group)", "setting": "[2]; ivermectin imbibed 18 ng/ml", "value": 2.1}, {"measurement": "IRR (Incidence Rate Ratio of mortality at day 7, treatment group divided by control group)", "setting": "[2]; ivermectin imbibed 20 ng/ml", "value": 2.7}, {"measurement": "IRR (Incidence Rate Ratio of mortality at day 7, treatment group divided by control group)", "setting": "[2]; ivermectin imbibed 22 ng/ml", "value": 2.3}, {"measurement": "IRR (Incidence Rate Ratio of mortality at day 7, treatment group divided by control group)", "setting": "[2]; ivermectin imbibed 25 ng/ml", "value": 5.3}, {"measurement": "IRR (Incidence Rate Ratio of mortality at day 7, treatment group divided by control group)", "setting": "[2]; ivermectin imbibed 28 ng/ml", "value": 5.2}, {"measurement": "IRR (Incidence Rate Ratio of mortality at day 7, treatment group divided by control group)", "setting": "[2]; ivermectin imbibed 30 ng/ml", "value": 8.0}, {"measurement": "IRR (Incidence Rate Ratio of mortality at day 7, treatment group divided by control group)", "setting": "[2]; ivermectin imbibed 35 ng/ml", "value": 8.4}, {"measurement": "IRR (Incidence Rate Ratio of mortality at day 7, treatment group divided by control group)", "setting": "[2]; ivermectin imbibed 40 ng/ml", "value": 9.4}, {"measurement": "P. vivax oocyst prevalence reduced by", "setting": "[3]; ivermectin LC5 (6.7 ng/ml) co-ingested at DPI 0", "value": 31.3, "unit": "%"}, {"measurement": "P. vivax mean oocyst intensity reduced by", "setting": "[3]; ivermectin LC5 at DPI 0", "value": 35.3, "unit": "%"}, {"measurement": "P. vivax oocyst prevalence reduced by", "setting": "[3]; ivermectin LC25 (11.3 ng/ml) co-ingested at DPI 0", "value": 58.8, "unit": "%"}, {"measurement": "P. vivax mean oocyst intensity reduced by", "setting": "[3]; ivermectin LC25 at DPI 0, P = 0.1018", "value": 28.5, "unit": "%"}, {"measurement": "An. gambiae 5-day-LC50", "setting": "[4]", "value": 0.0224, "unit": "µg/mL"}, {"measurement": "Parent compound half-life", "setting": "[5]", "value": 11.8, "unit": "h"}, {"measurement": "Simulated average peak concentration", "setting": "[6]", "value": 108.1, "unit": "ng/mL"}]}]}
